From ChEMBL document CHEMBL5614401 (Eur J Med Chem, 2024) come the findings set out here.

Active and inactive are the calls of the source. The rule behind the calls is not given here.

The target in data set [1] is T1, Solute carrier family 22 member 12 (Homo sapiens, UniProt Q96S37).
T1 sequence (Q96S37 whole entry): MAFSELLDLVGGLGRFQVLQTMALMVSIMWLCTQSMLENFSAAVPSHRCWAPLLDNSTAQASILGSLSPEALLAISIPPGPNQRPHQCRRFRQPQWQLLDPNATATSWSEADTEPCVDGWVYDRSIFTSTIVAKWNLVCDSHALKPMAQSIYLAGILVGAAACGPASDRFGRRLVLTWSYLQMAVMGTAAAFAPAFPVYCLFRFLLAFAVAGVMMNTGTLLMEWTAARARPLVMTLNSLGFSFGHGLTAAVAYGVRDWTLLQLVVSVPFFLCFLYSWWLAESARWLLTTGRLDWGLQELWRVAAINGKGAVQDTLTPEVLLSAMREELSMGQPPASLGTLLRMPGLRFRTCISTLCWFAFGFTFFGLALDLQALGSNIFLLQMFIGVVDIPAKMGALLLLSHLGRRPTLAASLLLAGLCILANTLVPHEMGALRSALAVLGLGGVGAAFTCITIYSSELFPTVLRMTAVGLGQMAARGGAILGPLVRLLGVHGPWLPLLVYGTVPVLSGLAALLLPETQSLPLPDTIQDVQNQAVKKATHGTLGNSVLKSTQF
Description: Inhibition of human URAT1 transfected in HEK293 cells by measuring 14C-uric acid uptake preincubated for 30 mins followed by 14--uric acid addition and measured after 15 mins by liquid scintillation counter analysis. The format is cell-based.

In data set [2] the target is T2, Solute carrier family 2, facilitated glucose transporter member 9 (Homo sapiens) (UniProt Q9NRM0).
T2 sequence (whole entry): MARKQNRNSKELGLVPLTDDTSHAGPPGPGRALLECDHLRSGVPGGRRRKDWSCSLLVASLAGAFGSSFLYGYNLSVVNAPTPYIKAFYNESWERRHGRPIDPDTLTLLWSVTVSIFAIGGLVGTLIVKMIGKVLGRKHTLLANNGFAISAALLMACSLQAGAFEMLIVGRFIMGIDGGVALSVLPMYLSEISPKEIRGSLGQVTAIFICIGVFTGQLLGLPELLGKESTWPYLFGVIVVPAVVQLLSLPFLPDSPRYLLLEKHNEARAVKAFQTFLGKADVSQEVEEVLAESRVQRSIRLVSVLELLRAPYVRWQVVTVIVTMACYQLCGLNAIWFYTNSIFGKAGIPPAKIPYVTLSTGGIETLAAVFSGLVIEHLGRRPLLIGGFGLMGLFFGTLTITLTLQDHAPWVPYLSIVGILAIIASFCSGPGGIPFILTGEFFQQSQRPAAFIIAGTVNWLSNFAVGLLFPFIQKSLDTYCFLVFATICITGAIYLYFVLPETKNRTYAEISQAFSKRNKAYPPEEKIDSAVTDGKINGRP
Description: Inhibition of GLUT9 (unknown origin) overexpressed in uric acid-induced HEK293 cells at 25 uM by patch clamp analysis relative to control. The format is cell-based.

Data set [3] deals with T3, Solute carrier family 2, facilitated glucose transporter member 9 (Homo sapiens, UniProt Q9NRM0).
T3 sequence (Q9NRM0 whole entry): T2 sequence (whole entry)
Description: Inhibition of GLUT9 (unknown origin) overexpressed in uric acid-induced HEK293 cells by patch clamp analysis. It is filed as cell-based. Background: In patch-clamp work, channel activity is measured electrically.

In data set [4] the test system is Mus musculus. Description: Anti-hyperuricemic activity against potassium oxonate-induced male Kunming mouse model assessed as reduction in serum uric acid level at 10 mg/kg, po via gavage administered 1 hr post-potassium oxonate challenge and measured after 7 days on day 7 potassium oxonate injected after 12 hrs fasting and measured followed by 1.5 hrs of compound administration. It is filed as functional. The following applies: time 7 day.

Data set [5] has as its system Mus musculus. Description: Anti-hyperuricemic activity against potassium oxonate-induced male Kunming mouse model assessed as increase in urine uric acid level at 10 mg/kg, po via gavage administered 1 hr post-potassium oxonate challenge and measured after 7 days on day 7 potassium oxonate injected after 12 hrs fasting and measured followed by 1.5 hrs of compound administration (reference value: 481.6 microM). The format is functional. The following applies: time 7 day.

The subject of data set [6] is HK-2. The data set is described as follows: Cytotoxicity against human HK-2 cells assessed as cell viability at <100 uM incubated for 24 hrs by MTT assay. The format is toxicity, cell-based. The following applies: hk-2, 24 h. A general note: Tetrazolium assays rely on reduction of a dye to a coloured formazan, in cell work by metabolically active cells.
Data set [7] is described as follows: Cytotoxicity against human HK-2 cells assessed as cell viability at 100 uM incubated for 48 hrs by MTT assay relative to control. The format is toxicity, cell-based. The following applies: read-out: Activity.
Data set [8] is described as follows: Renal toxicity in potassium oxonate-induced male Kunming mouse model assessed as reduction in CR level in serum at 10 mg/kg,po via gavage administered 1 hr post-potassium oxonate challenge and measured after 7 days on day 7 potassium oxonate injected after 12 hrs fasting and measured followed by 1.5 hrs of compound administration by biochemical analyzer. It is filed as organism-based. The following applies: in vivo, 168 h, time 7 day.

Data set [9] can be described thus: Renal toxicity in potassium oxonate-induced male Kunming mouse model assessed as reduction in BUN level in serum at 10 mg/kg,po via gavage administered 1 hr post-potassium oxonate challenge and measured after 7 days on day 7 potassium oxonate injected after 12 hrs fasting and measured followed by 1.5 hrs of compound administration by biochemical analyzer. The following applies: in vivo, 168 h, time 7 day. It is filed as organism-based.

Data set [10] can be described thus: Renal toxicity in potassium oxonate-induced male Kunming mouse model assessed as effect on kidney damage at 10 mg/kg,po via gavage administered 1 hr post-potassium oxonate challenge and measured after 7 days on day 7 potassium oxonate injected after 12 hrs fasting and measured followed by 1.5 hrs of compound administration. The format is organism-based. The following applies: in vivo, 168 h, time 7 day.

In data set [11] the test system is Mus musculus. Description: Anti-hyperuricemic activity against potassium oxonate-induced male Kunming mouse model assessed as alleviation of renal tubule dilatation at 10 mg/kg, po via gavage administered 1 hr post-potassium oxonate challenge and measured after 7 days on day 7 potassium oxonate injected after 12 hrs fasting and measured followed by 1.5 hrs of compound administration by H and E staining based analysis. The format is functional, organism-based. The following applies: time 7.0 day.

Data set [12] has as its system Mus musculus. The data set is described as follows: Anti-hyperuricemic activity against potassium oxonate-induced male Kunming mouse model assessed as alleviation of casts formation in kidney at 10 mg/kg, po via gavage administered 1 hr post-potassium oxonate challenge and measured after 7 days on day 7 potassium oxonate injected after 12 hrs fasting and measured followed by 1.5 hrs of compound administration by H and E staining based analysis. The format is functional, organism-based. The following applies: time 7.0 day.

The subject of data set [13] is Mus musculus. The data set is described as follows: Anti-hyperuricemic activity against potassium oxonate-induced male Kunming mouse model assessed as alleviation of glomerular ischemia in kidney at 10 mg/kg, po via gavage administered 1 hr post-potassium oxonate challenge and measured after 7 days on day 7 potassium oxonate injected after 12 hrs fasting and measured followed by 1.5 hrs of compound administration by H and E staining based analysis. The format is functional, organism-based. The following applies: time 7.0 day.

Data set [14] has as its system Mus musculus. The data set is described as follows: Anti-hyperuricemic activity against potassium oxonate-induced male Kunming mouse model assessed as alleviation of shrinkage in kidney at 10 mg/kg, po via gavage administered 1 hr post-potassium oxonate challenge and measured after 7 days on day 7 potassium oxonate injected after 12 hrs fasting and measured followed by 1.5 hrs of compound administration by H and E staining based analysis. The format is functional, organism-based. The following applies: time 7.0 day.

Data set [15] in a line: Tmax in male Sprague-Dawley rat at 10 mg/kg, po measured after 24 hrs by LC-MS/MS analysis. It is filed as ADME, organism-based. The following applies: in vivo.
The nature of data set [16]: Cmax in male Sprague-Dawley rat at 10 mg/kg, po measured after 24 hrs by LC-MS/MS analysis. It is filed as ADME, organism-based. The following applies: in vivo.
Data set [17] can be described thus: Half life in male Sprague-Dawley rat at 10 mg/kg, po measured after 24 hrs by LC-MS/MS analysis. The format is ADME, organism-based. The following applies: in vivo.
Data set [18] in a line: AUC (0 to infinity) in male Sprague-Dawley rat at 10 mg/kg, po measured after 24 hrs by LC-MS/MS analysis. The format is ADME, organism-based. The following applies: in vivo.
A short description of data set [19]: MRT (0 to infinity) in male Sprague-Dawley rat at 10 mg/kg, po measured after 24 hrs by LC-MS/MS analysis. The following applies: in vivo. It is filed as ADME, organism-based.
Data set [20] addresses T1, Solute carrier family 22 member 12. Description: Inhibition of URAT1 (unknown origin).
The subject of data set [21] is HK-2. Description: Cytotoxicity against human HK-2 cells assessed as cell viability at 100 uM incubated for 48 hrs by MTT assay. It is filed as toxicity, cell-based. The following applies: hk-2, 48 h.
Data set [22] concerns the target T1, Solute carrier family 22 member 12. Description: Inhibition of human URAT1 transfected in HEK293 cells by measuring 14C-uric acid uptake at 5 uM preincubated for 30 mins followed by 14--uric acid addition and measured after 15 mins by liquid scintillation counter analysis relative to control. The format is cell-based. The following applies: 0.25 h, time 45 min.

For orientation: IC50 means the concentration that inhibits the measured activity by half. A low value points to greater potency. The inhibition is the share of the control response that was lost under treatment. Read a low inhibition as a weak effect. What is called Tmax is the time from dosing to the highest level. The term Cmax denotes the maximum level reached in the sampled fluid or tissue. What is called half-life is the time in which the quantity being followed falls by half. Lower therefore signals fast loss. The term AUC(0-inf) denotes the area under the concentration-time curve extrapolated to infinity. Higher therefore signals more exposure. Broadly, the MRT inf is a mean duration of stay, worked out from the concentration-time curve. Turning to `C/C(=C\Cc1cccc2c1OC(c1ccc(Br)c3ccccc13)CC2=O)C(=O)O` (centres undefined), the IC50 in [1] is 0.16 µM; in [3], 4.47 µM. For the same molecule, the inhibition in [2] came to 91%. Also, the Activity was 319.1 µM with Mus musculus [4]; 642.1 µM in the data set with Mus musculus [5]; “Toxic” in the data set with HK-2 [6]; “Non-Toxic” in data set [8]; “Non-Toxic” in [9]; “Non-Toxic” in data set [10]. In data set [7], the viability at 48 h, 100 µM was 62.1%. Also, the result with Mus musculus [11], with Mus musculus [12], in the data set with Mus musculus [13] and in the data set with Mus musculus [14] was Active. For the same molecule, the Tmax in data set [15] is 1.15 h. Moreover, in data set [16], the highest level (Cmax) was 2.25 µg/mL. Besides, the half-life in data set [17] was 7.88 h. The molecule also yielded an AUC(0-inf) in data set [18] of 18.7 µg·h/mL. Besides, in [19], the MRT inf came to 10.2 h.
On to `O=C(c1cc(Cl)c(O)c(Cl)c1)N1CS(=O)(=O)c2ccccc21` [DOTINURAD], for which, in [20], it took 0.04 µM to reach half-maximal inhibition (IC50).
`C/C(=C\Cc1c(O)ccc2c1OC(c1cccs1)CC2=O)C(=O)O` (centres undefined) displayed an IC50 in [1] of 0.36 µM. This molecule also yielded an inhibition in data set [2] of 25.5%. Further, the Activity in the data set with Mus musculus [4] is 366.12 µM; in the data set with Mus musculus [5], 630.52 µM; with HK-2 [6], “Toxic”; with HK-2 [21] it was “Non-Toxic”; in data set [8], “Non-Toxic”; in [9], “Non-Toxic”. In addition, the Activity result in data set [10] was “Non-Toxic”. In addition, the result in the data set on Mus musculus [11], with Mus musculus [12], in the data set with Mus musculus [13] and with Mus musculus [14] was Active. Also, the Tmax in data set [15] worked out at 1.63 h. The molecule also showed a Cmax in data set [16] of 1.41 µg/mL. The same molecule showed a half-life in data set [17] of 4.52 h. Also, the AUC(0-inf) in data set [18] worked out at 5.56 µg·h/mL. The same molecule gave a mean residence time MRT inf in [19] of 8.48 h.
In data set [22], `CC(C)=CCc1c(O)ccc2c1OC(c1ccc(O)cc1)CC2=O` (centres undefined) returned an inhibition at 5 µM of 93.3%. Besides, the IC50 worked out at 0.24 µM in data set [1], 1.84 µM in data set [3] and 0.22 µM in [20]. The inhibition in data set [2] was 95.5%. Besides, in data set [15], the Tmax was found to be 1.12 h. In addition, in data set [16], the Cmax was determined as 1.11 µg/mL. For the same molecule, in data set [17], the half-life was 6.01 h. In addition, in [18], the AUC(0-inf) was 7.46 µg·h/mL. The molecule also registered an MRT inf in [19] of 9.16 h.
For the molecule `CC(C)(Sc1ccncc1Cc1ccc(C#N)c2ccccc12)C(=O)O`, the IC50 in data set [20] came out at 2.08 µM.
